Data reported in US10391070B2, “Compositions and methods for treating neurological diseases or injury” (MUSC FOUNDATION FOR RESEARCH DEVELOPMENT, priority 2012, dated 2019).
Where two headings read alike, the source gives them in different places.

Assays:
HT22 cells = test: In vitro neuroprotective activity against glutamate-induced cell death (MTS cell viability); type: cell-based, mouse; conditions: HT22 cells; for EC50: 24 hrs, MTS, concentration producing 50% protection, read-out: Protection PC50
Protocol: The HT22 neuronal cell line is a subclone of HT4, derived from the mouse hippocampus (Morimoto and Koshland, 1990). […] HT22 cells were used. The cells were grown in Dulbecco's Modified Eagle's medium (DMEM/high glucose) supplemented with 10% fetal bovine serum (Hyclone) and 5 mL Antibiotic-Antimycotic (Amphotericin B, Penicillin, and Streptomycin; Invitrogen) at 37° C. in 5% CO2.
Cell viability was assessed by the ability of the viable cells to metabolize 3-(4,5-dimethylthiazol-2-yl)-5-(3-carboxymethoxyphenyl)-2(4-sulfophenyl)2-H-tetrazolium, inner salt (MTS), as described previously (Cory et al., 1991). The metabolism of tetrazolium salts is often used to measure cellular proliferation, but in the system used here, it has been previously shown to correlate well with cell viability as determined by trypan blue exclusion and colony-forming assays (Davis and Maher, 1994). Briefly, HT-22 cells were seeded onto 96-well plates at 5.0×10^3 cells per well in 75 μL of medium and maintained at 37° C. in 5% CO2 overnight prior to the initiation of experimental treatments. For glutamate toxicity testing, cells were subsequently treated with 25 μL of medium containing glutamate (monosodium glutamate, Sigma, 1 M stock concentration in media, to achieve a final concentration of 10 mM) plus inhibitors (stock in DMSO) and maintained at 37° C. in 5% CO2. For t-BuOOH toxicity testing, cells were subsequently treated with 25 μL of medium containing t-BuOOH (Sigma, 10 mM stock concentration, to achieve a final concentration of 50 μM) plus inhibitors (stock in DMSO) and maintained at 37° C. in 5% CO2 for 3 hours, after which the media was removed, cells washed gently with HBSS, the media replaced with standard culture media, and the cells returned to incubation at 37° C. in 5% CO2. For both glutamate and t-BuOOH treatments, 10 μl of MTS solution was added to each well 24 hrs after initial treatment, and the cells were maintained in growth medium for 2 h at 37° C. Absorbance at 490 nm was subsequently measured by a SpectraMax 190 plate reader (Molecular Devices). The growth medium without cells in the presence of MTS solution was used as solution background and untreated cells were considered the controls. Cell viability was calculated as a percentage compared with untreated controls. EC50 determinations were based on 12-point titrations using GraphPad Prism, and each experiment was repeated at least four times. Morphology of HT22 cells following treatments was determined by phase-contrast microscopy. Digital images of cells grown on cell culture plates were captured at 10× magnification.
The neuroprotective properties of VK and its derivatives were estimated through their protective effects against cell death in mouse neuronal HT22 cells induced by exposure to high levels of glutamate, which recapitulates a hallmark of the extracellular environment found in several neurodegenerative diseases and CNS injuries and is a well established model of neuronal oxidative stress. This investigation began by comparing the relative abilities of the two predominant naturally occurring forms of VK, VK1 and VK2, to prevent oxidative cell death. […] Several 1,4-naphthoquinones with various substitutions at the 2′ and 3′ positions were tested to determine the minimum structural requirement of the system and what the optimum scaffold for future developmental efforts and biological validation would be (FIG. 1B and Table 1). […] Substitution by a single methyl group at the 2′ position (VK3) improves the compound's ability to protect against cell death. Various other simple substituents at the 2′ and 3′ positions give the naphthoquinone structure the ability to prevent oxidative cell death at nanomolar concentrations (Table 1 and FIG. 16).

NQO-1 = test: qRT-PCR of antioxidant response gene NQO-1; type: cell-based, mouse; conditions: HT22, 10 mM glutamate 16 hrs, relative to glutamate only
Protocol: HT22 cells were seeded onto cell culture treated 6-well plates at 3.0×10^5 cells per well in 2 mL of medium and maintained at 37° C. in 5% CO2 overnight prior to the initiation of experimental treatments. Cells were subsequently treated with 1 mL of medium containing glutamate (monosodium glutamate, Sigma-Aldritch, 1 M stock concentration in media, to achieve a final concentration of 10 mM) plus inhibitors (stock in DMSO) and maintained at 37° C. in 5% CO2. After 16 hrs, the media was collected and the cells harvested by trypsanization. After centrifugation, pelleted cells were washed with cold Hanks' Balanced Salt Solution (HBSS Ca^2+/Mg^2+ Free; Invitrogen; KCl 5.33 mM, KH2PO4 0.441 mM, NaHCO3 4.17 mM, NaCl 137.93 mM, Na2HPO4 0.338 mM, D-Glucose 5.56 mM), qRT-PCR was used to detect HO-1, NQO-1, and PGAM5 mRNAs in the HT22 cells. […] Therefore β2-microglobulin was used as a reference gene (Barrionuevo and Burggren, 1999). HT22 cells were cultured as described for 16 hrs. Total RNAs were extracted using the RNEasy kit (Qiagen), and transcripts of interest were amplified by PCR using the 1-step Syber Green qRT-PCR kit (Quanta) and the following specific primers (Harvard PrimerBank; Integrated DNA Technologies): HO-1, 5′-[…]-3′ (SEQ ID NO:1) and 5′-[…]-3′ (SEQ ID NO:2); PGAM5, 5′-[…]-3′ (SEQ ID NO:3) and 5′-[…]-3′ (SEQ ID NO:4); NQO-1, 5′-[…]-3′ (SEQ ID NO:5) and 5′-[…]-3′ (SEQ ID NO:6); and β2-microglobulin, 5′-[…]-3′ (SEQ ID NO:7) and 5′-[…]-3′ (SEQ ID NO:8). Linearity of the primers was verified before use, and fold changes were calculated as previously described using the Livak method (Barrionuevo and Burggren, 1999).

[1] = Mus musculus, HT-22, 10 mM glutamate

Row | Compound | EC50 (HT22 cells; [1]) [nM] | NQO-1 gene expression (NQO-1) | fold increase in PC50 potency over VK2 (HT22 cells; 10 mM glutamate) | fold increase in PC50 potency over compound 2j (HT22 cells; 10 mM glutamate) [fold] | EC50 (HT22 cells; 10 mM glutamate) [nM] | protection from oxidative cell death (HT22 cells; glutamate)
1 | C#CCNC1=CC(=O)c2ccccc2C1=O [Compound 2h, 2-(prop-2-yn-1-ylamino)naphthalene-1,4-dione] | 120 |  |  |  |  | 
2 | O=C1C=C(NCc2ccccc2)C(=O)c2ccccc21 [Compound 2j, 2-(benzylamino)naphthalene-1,4-dione] | 88 | did not affect NQO-1 expression |  |  |  | 
3 | O=C1C=C(NCc2cccc(Cl)c2)C(=O)c2ccccc21 [Compound 2q, 2-((3-chlorobenzyl)amino)naphthalene-1,4-dione] | 31 | did not affect NQO-1 expression | more than 10 fold | ~3 |  | 
4 | CC1=CC(=O)c2ccccc2C1=O [VK3, menadione, reference compound] |  |  |  |  | 797 | 
5 | menaquinones [VK2, reference compound] |  | did not affect NQO-1 expression |  |  | 432 | rescued HT22 cells from oxidative cell death
